The record followed here is patent US12364679B2, “Esters for treatment of ocular inflammatory conditions” (Johnson & Johnson Vision Care, Inc., priority 2011, dated 2025).

Series [1] concerns transepithelial permeability in vitro model. Kind of series: Transepithelial permeability in vitro model (TEP test), fluorescein leakage. To be noted: 0.2%, relative to vehicle/controls. Type of series: cell-based. Here is the method:
The compositions of Examples 1A and 1B and Comparative Example 2A were tested in vitro as follows. A transepithelial permeability in vitro model (TEP test) was used to assess fluorescein leakage (or increased transepithelial permeability) with the free acid in comparison with the ester form of the alpha linolenic acid.

A short description of series [2]: Uptake by senofilcon contact lenses from IPA solution, gas chromatography. It is filed as physicochemical. As to the method: ALA-EE was dissolved in isopropanol (IPA) at the concentration of 0.05 or 0.5%. Silicone hydrogel contact lenses (senofilcon, commercially available as ACUVUE® OASYS® with […]® Plus lenses) were then allowed to soak in the ALA-EE-containing IPA for up to 1 hour at room temperature, followed by soaking in ALA-EE containing IPA/packing solution (70% IPA/30% packing solution) for up to 1 hour, rinsing in packing solution, and packaging of lenses in the packing solution. ALA-EE uptake by the contact lenses was quantified by gas chromatography.
A comparative silicone hydrogel contact lens that incorporated alpha linolenic acid (ALA), rather than the ester, was prepared following the same protocol as Example 6.

In series [3] the test system is corneal epithelium tissue construct (HCE construct, SkinEthic). Kind of series: Corneal epithelial tissue model, cell viability (MTT), 8 hour exposure. To be noted: 0.001 and 0.01%.
Description: (§1) The model uses a corneal epithelium tissue construct (e.g., HCE construct manufactured by SkinEthic).
(§2) The esterified anti-inflammatory lipid mediator dose-responses were then evaluated in the construct, whereby 30 microliters of the rewetting drop was topically applied to the tissue for 8 or 24 hours, and cell viability was then quantified along with a subset of selected potential biomarkers within the tissue culture media.
Series [4] has as its system "contact lens induced dry eye" subjects. Kind of series: Comfort upon instillation to the eye (non-dispensing clinical studies). The conditions noted are these: human, in vivo. As to the method:
Preliminary non-dispensing clinical studies were conducted to further assess the use of omega-three fatty acid compositions. A 0.05 wt. % concentration ester version of an omega-three fatty acid was instilled on three “contact lens induced dry eye” subjects (each with at least one sign and one symptom of contact lens induced dry eye) without any acute ocular discomfort or physiological findings. Similarly, a 0.2 wt. % concentration ester version of the omega-three fatty acid was instilled on four “contact lens induced dry eye” subjects without any acute ocular discomfort or physiological findings.

A short description of series [5]: Uptake by narafilcon B contact lenses from propylene glycol solution, gas chromatography. To be noted: for ALA-EE uptake: narafilcon B. It is filed as physicochemical. As to the method: The alpha linolenic acid ethyl ester (ALA-EE) was dissolved in propylene glycol (PG) at concentrations of 0.05 and 0.5%, and silicon hydrogel lenses (Narafilcon B lenses (ACUVUE® TrueEye®)) were hydrated or soaked in the ALA-EE-containing propylene glycol solution for one hour at room temperature, followed by rinsing in DI water and repackaging of lenses in the packing solution. The lenses were packaging in borate buffer packing solution with 50 ppm methyl cellulose and autoclaved at 121° C. for 19 minutes. ALA-EE was quantified by gas chromatography.

For series [6], the system named is corneal epithelium tissue construct (HCE construct, SkinEthic). To be noted: human, 8 h.
Description: as §1, §2

Regarding `CC/C=C\C/C=C\C/C=C\CCCCCCCC(=O)O` [ALA, alpha-linolenic acid, reference compound], in series [1], the “effect on transepithelial permeability / fluorescein leakage” value is given as “significant increase in fluorescein leakage”. Moreover, the “uptake of ALA by the contact lenses” value is given as 23 micrograms per lens in series [2] (0.05% ALA solution in IPA) and 300 micrograms per lens in series [2] (0.5% ALA solution in IPA).

Turning to benzalkonium chloride [BAK], the “cytotoxicity in the construct” value in series [3] is recorded as “non-cytotoxic”.

Consider `CC/C=C\C/C=C\C/C=C\CCCCCCCC(=O)OCC` [ALA-EE, ethyl linolenate], for which the “effect on transepithelial permeability / fluorescein leakage” value in series [1] is on record as “behaved similarly to the vehicle”. Moreover, in series [4], the “response on the eye (acute ocular discomfort)” value is given as “lack of acute ocular discomfort”. Moreover, the ALA-EE uptake in series [2] (0.05% ALA-EE solution in IPA) turned out to be 54 micrograms per lens; in series [2] (0.5% ALA-EE solution in IPA), 611 micrograms per lens; in series [5] (0.05% ALA-EE solution), 91 micrograms per lens; in series [5] (0.5% ALA-EE solution), 721 micrograms per lens. Also, the “hydrolysis of ester to free acid form” value in series [2] (senofilcon lens loading from IPA) is reported as “did not hydrolyze to the free acid form”. In series [5] (narafilcon B lens, PG loading, autoclaved 121° C.), the “hydrolysis of the ester to the acid” value is given as “no detectable hydrolysis”. For the same compound, the “impact on the in vitro endpoint, times less than linolenic acid (ALA)” value in series [6] turned out to be 10 times.
